From US9850271B2, “Crystalline solvate forms of a pharmaceutical” (NeurMedix, Inc., priority 2008, dated 2017)

Assay: Brief thermal stress of amorphous solid (physical stability)
Assay type: physicochemical
Conditions: brief thermal stress at 40° C.

SMILES: C#C[C@]1(O)CC[C@H]2[C@@H]3[C@@H](O)C=C4C[C@@H](O)CC[C@]4(C)[C@H]3CC[C@@]21C [amorphous Compound 1, 17α-ethynyl-androst-5-ene-3β,7β,17β-triol]
- solid state form after brief thermal stress: resulted in crystalline material that contains Form I
